Two compounds from ChEMBL document CHEMBL5107975, “HIV nucleoside reverse transcriptase inhibitors” (Eur J Med Chem, 2022) can be followed below.

The bioavailability is the share of a dose that reaches the circulation, judged against a reference dose that is usually intravenous. Read a high bioavailability as good availability. Broadly, the EC50 is the concentration giving half of the maximal effect. Low readings indicate a more potent agent, high ones a less potent agent.

Data set [1] in a line: Oral bioavailability in human relative to control. Conditions: in vivo. The format is ADME, organism-based.
A short description of data set [2]: Drug elimination in human urine assessed as unchanged drug administered po relative to control. It counts as ADME, organism-based. Conditions: read-out: Drug excretion.
A short description of data set [3]: Elimination half life in human administered po. It counts as ADME. As to conditions: read-out: LambdaZ (converted).
Data set [4] deals with Human immunodeficiency virus 1. As to the kind of experiment: Antiviral activity against HIV-1. It counts as functional, organism-based.

In data set [1], `C=C1[C@H](CO)[C@@H](O)C[C@@H]1n1cnc2c(=O)[nH]c(N)nc21.O` [ENTECAVIR] returned a bioavailability of 100%. In data set [2], the dose excreted is 62%. Further, in data set [3], the half-life is 128 h. Further, in data set [4], the EC50 is above 1000 nM.

Compound `Nc1ccn([C@@H]2CS[C@H](CO)O2)c(=O)n1` [LAMIVUDINE] displayed an EC50 in data set [4] of 2 nM.
